Columns and labels:
H3K27me3 in HeLa cell = assay: Inhibition of cellular H3K27me3 (western blot quantification); assay type: cell-based; settings: Homo sapiens, 72 hr of treatment, n = 3
Experimental: Cells were washed once with cold PBS and lysed by RIPA lysis buffer and incubated with 4 × SDS loading buffer at 95 °C for 10 min. Whole cell proteins were used for electrophoresis and then transferred to a nitrocellulose membrane. The membrane was blocked with Tris buffered saline containing 0.075% Tween-20 and 5% non-fat milk. Then the membranes were incubated with primary antibodies overnight at 4 °C. The next day, membranes were incubated with secondary antibodies for 1 h at room temperature.

[1] = system: WSU-DLCL2 (EZH2-Y641F) cell; assay: Anti-proliferation of lymphoma cell WSU-DLCL2, viable cell count; assay type: cell-based; settings: Homo sapiens, WSUDLCL2, 216 h, read-out: IC50 of proliferation inhibition
Experimental: (§1) Viable cell numbers were counted every 3 days up to 15 days by Vi-CELL (Beckman Coulter). For cell cycle analysis, MAK683 treated cells were fixed with pre-chilled 70% ethanol and kept at -20 degree overnight. On the second day, the cells were washed with cold PBS twice and collected by spin at 1000 rpm, digested with RNase A, then stained with 10 μg /mL Propidium Iodide in PBS solution for 30 min at room temperature. The stained cell samples were filtered through 70 μm cell strainer, and the staining signals were detected using flow cytometer (BD Fortessa). The acquired data were further analyzed by Modfit LT.

A2780 cells = assay: Cancer cell proliferation, viable cell count; assay type: cell-based; settings: A2780 (ARID1A-deficiency), up to 15 days
Experimental: as §1

HeLa cells = assay: Cancer cell proliferation, viable cell count; assay type: cell-based; settings: up to 15 days
Experimental: as §1

MCAS cells = assay: Cancer cell proliferation, viable cell count; assay type: cell-based; settings: up to 15 days
Experimental: as §1

RD cells = assay: Cancer cell proliferation, viable cell count; assay type: cell-based; settings: up to 15 days
Experimental: as §1

A204 cells = assay: Cancer cell proliferation, viable cell count; assay type: cell-based; settings: A204 (SMARCB1 deficiency), up to 15 days
Experimental: as §1

G401 cells = assay: Cancer cell proliferation, viable cell count; assay type: cell-based; settings: G401 (SMARCB1 deficiency), up to 15 days
Experimental: as §1

G402 cells = assay: Cancer cell proliferation, viable cell count; assay type: cell-based; settings: G402 (SMARCB1 deficiency), up to 15 days
Experimental: as §1

Hs700T cells = assay: Cancer cell proliferation, viable cell count; assay type: cell-based; settings: Hs700T (SMARCA4-deficiency), up to 15 days
Experimental: as §1

p16 KO G401 cells = assay: Proliferation of p16 KO G401 cells, viable cell count; assay type: cell-based; settings: p16 KO G401 clones vs G401; MAK683 at 1 μM (proliferation), 3 μM 3 days (cell cycle)
Experimental: as §1
Two pairs of guide RNAs (Supplementary Table 1) targeting the exon2 of human CDKN2A (NM_000077) were designed using ChopChop website. gRNA oligos were synthesized, annealed and subcloned into the pSpCas9(BB)-2A-GFP (PX458). G401 and A2780 cell lines were transfected with the resultant plasmids, cultured for 48 h, and then applied to the single cell sorting for selecting GFP-positive cell by flow cytometer. Single cell clones were first cultured each well of 96-well plate, and then gradually expanded in larger cultures for further experiments. […]

G401 xenograft tumors = assay: Subcutaneous G401 xenograft tumor study; assay type: in vivo, mice
Experimental: (§2) The animal study design and performance were evaluated and approved by Institutional Animal Care and Use Committee of ShanghaiTech University under the document number of 20201225001 and following the internationally recognized guidelines on animal welfare. To establish G401 xenograft models, WT G401 or p16 knock out cells were washed and resuspended in cold PBS and mixed with Matrigel at 1:1 (v/v) to reach the final ratio of 5 × 10^6 cells per 200 μL. Then the tumor cell mix were injected subcutaneously into the right flank of female Balb/c nude mice (5–6 weeks of age).
(§3) When tumor volume reached around 60-350 mm^3, the mice were numbered and randomized into vehicle or 100 mg/kg MAK683 treatment groups. The random numbers were generated using Excel (Software). The mice with tumor size out of the range were not included in the study. Empirically, at least 6 mice were included for each group. For compound dosing, MAK683 was resolved and suspended in water with 0.5% HPMC and 0.5% Tween at the concentration of 10 mg/mL. Dosing without blinding took place very day in the morning around 8 am. Mice weight and tumor volumes are measured and recorded every 3 days. Tumor volumes were calculated based on perpendicular length and width caliper measurements using the following formula: tumor volume (mm^3) = 0.5 × (length × width^2).
(§4) Tumor tissues were fixed in freshly-prepared 4% PFA for 24 hours, dehydrated through 30%, 50%, 70%, 85%, and 90% ethanol five-minute each, and 100% ethanol triple, permeabilized through xylene five-minute twice and then embedded in paraffin, and finally cut into 5 μm-thick sections. The sections were de-paraffinized with xylene for 10 min triple, rehydrated with ethanol from high to low concentration five minutes each and dH2O twice. […] After cool down to room temperature, endogenous peroxidase was inactivated with 3% H2O2 in methanol. Then the sections were washed with dH2O twice, blocked with 5% normal goat serum in PBS with 0.25% Triton X-100 for 1 hour at room temperature followed by primary antibodies incubation overnight at 4 °C. After HRP-conjugated secondary antibodies were incubated for 1 hours at room temperature, the sections were visualized with DAB. For quantification of Ki-67, H3K27me3 or ITGA2 positivity, the ratios of DAB positive cells to total cells in five representative fields were counted. For quantification of F4/80 positivity, the ratios of DAB positive area to total cells were counted. Five 40 × objective magnification fields per selection were counted and averaged.
Cell senescence study was used by Beyotime in Situ β-galactosidase Staining Kit. Adherent cells were fix by fix-buffer for 15 min at room temperature and wash with PBS twice, then stain by stain-buffer mixture at 37 °C overnight. Frozen tissue sections were counterstained with eosin.

p16 KO xenograft tumors = assay: Subcutaneous p16 KO G401 xenograft tumor study; assay type: in vivo, mice
Experimental: as §2, §3, §4
Cell senescence study was used by Beyotime in Situ β-galactosidase Staining Kit. Adherent cells were fix by fix-buffer for 15 min at room temperature and wash with PBS twice, then stain by stain-buffer mixture at 37 °C overnight. […]

[2] = Body weight of tumor-bearing animals; assay type: in vivo; settings: 100 mg/kg daily, G401 xenograft-bearing mice, 25 days
Experimental: as §3

[3] = 100 mg/kg po qd, 25 days treatment
[4] = WT G401 tumor, 100 mg/kg, continuous treatment 46 days, treatment endpoint
[5] = p16 KO xenograft, 100 mg/kg, continuous treatment 46 days, treatment endpoint

In the case of `CS(=O)(=O)c1ccc(-c2cnc(NCc3ccco3)n3cnnc23)cc1` [EED226], the IC50 (H3K27me3 in HeLa cell) is reported as 0.21 µM and the IC50 [1] is reported as 0.0359 µM.

For `CCN(c1cc(-c2ccc(CN3CCOCC3)cc2)cc(C(=O)NCc2c(C)cc(C)[nH]c2=O)c1C)C1CCOCC1` [EPZ6438], the “Sensitivity of proliferation to treatment” value (“Sensitivity of proliferation” for short) (A2780 cells) was “similarly inhibited the proliferation”, the “Sensitivity of proliferation” value (HeLa cells) was “not sensitive” and the “Sensitivity of proliferation” value (MCAS cells) was “not sensitive”. The “Sensitivity of proliferation” value (RD cells) was “not sensitive”.

With `Cc1ncccc1-c1cnc(NCc2c(F)ccc3c2CCO3)n2cnnc12` [MAK683] the IC50 (H3K27me3 in HeLa cell) was 0.00101 µM, the IC50 [1] was 0.00115 µM and the “Sensitivity of proliferation” value (A204 cells) was “sensitive”. For the same compound, the “Sensitivity of proliferation” value (A2780 cells) was “moderately sensitive”, the “Sensitivity of proliferation” value (G401 cells) was “sensitive” and the “Sensitivity of proliferation” value (G402 cells) was “sensitive”. The “Sensitivity of proliferation” value (HeLa cells) was “not sensitive”, the “Sensitivity of proliferation” value (Hs700T cells) was “moderately sensitive” and the “Sensitivity of proliferation” value (MCAS cells) was “not sensitive”. For the same compound, the “Sensitivity of proliferation” value (RD cells) was “not sensitive”, the “Response of p16 KO cells to induced cell cycle arrest and proliferation blockage” value (p16 KO G401 cells) was “partially resistant” and the TGI (G401 xenograft tumors; [3]) was 67.20%. For the same compound, the “Tumor volume T/C%” value (G401 xenograft tumors; [3]) was 30.55%, the “Ki-67 in treated tumors (IHC)” value (G401 xenograft tumors; 100 mg/kg po qd, day 25) was “significantly reduced” and the “SA-β-gal activity in treated tumors” value (G401 xenograft tumors; 100 mg/kg po qd, day 25) was “increased”. The “H3K27me3 in treated tumors (IHC)” value (G401 xenograft tumors; 100 mg/kg po qd, day 25, 4 h post treatment) was “significantly decreased”, the T/C% (G401 xenograft tumors; [4]) was 7.21% and the TGI (G401 xenograft tumors; [4]) was 91.25%. The “Ki67 positivity in tumors” value (G401 xenograft tumors; WT tumors, 46 days) was “reduced”, the “SA-β-gal signal in tumors” value (G401 xenograft tumors; WT tumors, 46 days) was “increased” and the “Ki67 positivity in tumors” value (p16 KO xenograft tumors; p16 KO tumors, 46 days) was “reduced”. The T/C% (p16 KO xenograft tumors; [5]) was 35.81%, the TGI (p16 KO xenograft tumors; [5]) was 54.18% and the “SA-β-gal signal in tumors” value (p16 KO xenograft tumors; p16 KO xenografts, 46 days) was “unchanged”. For the same compound, the “Animals' body weight” value [2] was “unaffected”.

Reference: article PMC8847585, “Induction of senescence-associated secretory phenotype underlies the therapeutic efficacy of PRC2 inhibition in cancer” (Cell Death & Disease, 2022)
